Measurements taken from patent US20120190546A1, “HERBICIDAL COMPOSITION AND METHOD OF USE THEREOF” (SYNGENTA CROP PROTECTION LLC, priority 2007, published 2012).

How the values were obtained:
[1] = system: white clover (Trifolium repens); experiment: Glasshouse trial: control of white clover with mesotrione and oxadiazon applied post-emergence; format: in vivo; design: key to Synergy (actual vs expected), Plus Mesotrione at 100 g ai/ha / Synergy (actual vs expected), Plus Mesotrione at 150 g ai/ha: ‘n’indicates no synergy observed; *indicates synergy; conditions: for Synergy (actual vs expected), Plus Mesotrione at 100 g ai/ha / Synergy (actual vs expected), Plus Mesotrione at 150 g ai/ha: Student-Newman-Keuls test; for Actual weed control, Plus Mesotrione at 100 g ai/ha / Actual weed control, Plus Mesotrione at 150 g ai/ha: X-77 0.1% v/v, evaluated 7 and 14 DAT (not said which)
Method: (§1) In the following tests, herbicides were applied at reduced field rates because herbicide effects are magnified in a glasshouse environment. The rates tested were selected to give between about 50 and 70% control with herbicides applied alone, so that any synergistic effect could be readily detected when testing mixtures.
(§2) A glasshouse trial was carried out. White clover seeds were sown into standard glasshouse potting mix (1:1 v/v Promix:Vero sand soil) contained in 10 cm square plastic pots. Treatments were replicated three times. Mesotrione (in the form Callisto® 480SE) was applied post-emergence to white clover (Trifolium repens) at either 100 g ai/ha or 150 g ai/ha with or without oxadiazon (in the form Ronstar®). When used, oxadiazon was applied at a rate of 210 g ai/ha or 420 g ai/ha. The adjuvant system was X-77 at 0.1% v/v in deionised water. 200 litres of herbicide/adjuvant system was used per hectare. General weed control was evaluated at 7 and 14 days after treatment (DAT). It is noted that all herbicides were applied at reduced field rates because herbicide effects are magnified in a glasshouse environment. Rates were chosen to give a 50 to 70% level of control with herbicides applied alone as this allows for detection of any synergistic effect when tank mixtures are used.
(§3) The results were evaluated using the Colby formula. The expected result for (A+B) is (A+B)−(AxB/100) where A and B are the ‘observed’ results for A and B on their own.

[2] = system: white clover; experiment: Glasshouse trial: control of white clover with mesotrione and oxadiazon applied pre-emergence; format: in vivo, Trifolium repens; design: key to Synergy (actual vs expected), Plus Mesotrione at 25 g ai/ha / Synergy (actual vs expected), Plus Mesotrione at 50 g ai/ha: ‘n’indicates no synergy observed; *indicates synergy
Method: as §1, §2, §3
A glasshouse trial was carried out as described in Example 1, except that the herbicidal composition was applied pre-emergence, and lower rates of mesotrione were used as indicated below.

[3] = oxadiazon 210 g ai/ha + mesotrione 100 g ai/ha
[4] = oxadiazon 210 g ai/ha + mesotrione 150 g ai/ha
[5] = oxadiazon 420 g ai/ha + mesotrione 100 g ai/ha
[6] = oxadiazon 420 g ai/ha + mesotrione 150 g ai/ha
[7] = oxadiazon 210 g ai/ha + mesotrione 25 g ai/ha
[8] = oxadiazon 210 g ai/ha + mesotrione 50 g ai/ha
[9] = oxadiazon 420 g ai/ha + mesotrione 25 g ai/ha
[10] = oxadiazon 420 g ai/ha + mesotrione 50 g ai/ha

For “5-tert-butyl-3-(2,4-dichloro-5-isopropoxyphenyl)-1,3,4-oxadiazol-2(3M-one [Oxadiazon]”, the “Expected weed control (Colby formula), Plus Mesotrione at 100 g ai/ha” value [1, 3] was 48%, the “Synergy (actual vs expected), Plus Mesotrione at 100 g ai/ha” value [1, 3] was “n” and the “Actual weed control, Plus Mesotrione at 100 g ai/ha” value [1, 3] was 48%. The “Expected weed control (Colby formula), Plus Mesotrione at 150 g ai/ha” value [1, 4] was 68%, the “Synergy (actual vs expected), Plus Mesotrione at 150 g ai/ha” value [1, 4] was “*” and the “Actual weed control, Plus Mesotrione at 150 g ai/ha” value [1, 4] was 77%. For the same substance, the “Expected weed control (Colby formula), Plus Mesotrione at 100 g ai/ha” value [1, 5] was 49%, the “Synergy (actual vs expected), Plus Mesotrione at 100 g ai/ha” value [1, 5] was “*” and the “Actual weed control, Plus Mesotrione at 100 g ai/ha” value [1, 5] was 75%. The “Expected weed control (Colby formula), Plus Mesotrione at 150 g ai/ha” value [1, 6] was 69%, the “Synergy (actual vs expected), Plus Mesotrione at 150 g ai/ha” value [1, 6] was “*” and the “Actual weed control, Plus Mesotrione at 150 g ai/ha” value [1, 6] was 77%. The “Actual weed control, Plus Mesotrione at 25 g ai/ha” value [2, 7] was 100%, the “Expected weed control (Colby formula), Plus Mesotrione at 25 g ai/ha” value [2, 7] was 77% and the “Synergy (actual vs expected), Plus Mesotrione at 25 g ai/ha” value [2, 7] was “*”. For the same substance, the “Actual weed control, Plus Mesotrione at 50 g ai/ha” value [2, 8] was 98%, the “Expected weed control (Colby formula), Plus Mesotrione at 50 g ai/ha” value [2, 8] was 83% and the “Synergy (actual vs expected), Plus Mesotrione at 50 g ai/ha” value [2, 8] was “*”. The “Actual weed control, Plus Mesotrione at 25 g ai/ha” value [2, 9] was 97%, the “Expected weed control (Colby formula), Plus Mesotrione at 25 g ai/ha” value [2, 9] was 96% and the “Synergy (actual vs expected), Plus Mesotrione at 25 g ai/ha” value [2, 9] was “*”. The “Actual weed control, Plus Mesotrione at 50 g ai/ha” value [2, 10] was 100%, the “Expected weed control (Colby formula), Plus Mesotrione at 50 g ai/ha” value [2, 10] was 97% and the “Synergy (actual vs expected), Plus Mesotrione at 50 g ai/ha” value [2, 10] was “*”.
